Data published in PubChem BioAssay (NCI).
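Cells were grown in 96-well plates and exposed to each compound for 48 hours at five concentrations; endpoints were interpolated linearly between bracketing concentrations, or set to the highest concentration if not reached. GI50 marks 50% less growth. Definition used: TGI = concentration required for complete inhibition of growth.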

Key:
Experiment in all cases: DTP human tumour cell line panel, 48 h
SK-MEL-5 melanoma = test system: SK-MEL-5 melanoma
SK-MEL-2 melanoma = test system: SK-MEL-2 melanoma
RPMI-8226 leukemia = test system: RPMI-8226 leukemia
NCI-H23 lung = test system: NCI-H23 lung
OVCAR-4 ovarian = test system: OVCAR-4 ovarian
COLO 205 colon = test system: COLO 205 colon
UACC-257 melanoma = test system: UACC-257 melanoma
NCI-H522 lung = test system: NCI-H522 lung
MDA-MB-231 breast = test system: MDA-MB-231 breast
ACHN renal = test system: ACHN renal

Structure (SMILES)	TGI (SK-MEL-5 melanoma) [µM]	TGI (SK-MEL-2 melanoma) [µM]	TGI (RPMI-8226 leukemia) [µM]	TGI (NCI-H23 lung) [µM]	TGI (OVCAR-4 ovarian) [µM]	TGI (COLO 205 colon) [µM]	TGI (UACC-257 melanoma) [µM]	TGI (NCI-H522 lung) [µM]	TGI (MDA-MB-231 breast) [µM]	TGI (ACHN renal) [µM]	GI50 (SK-MEL-5 melanoma) [µM]	GI50 (MDA-MB-231 breast) [µM]	GI50 (SK-MEL-2 melanoma) [µM]	GI50 (RPMI-8226 leukemia) [µM]	GI50 (NCI-H23 lung) [µM]	GI50 (OVCAR-4 ovarian) [µM]	GI50 (COLO 205 colon) [µM]	GI50 (UACC-257 melanoma) [µM]	GI50 (NCI-H522 lung) [µM]	GI50 (ACHN renal) [µM]
O=C1C(Cl)N(c2ccc(Cl)cc2)C1c1c[nH]c2ccccc12 (configuration not stated)	31	29.3	> 100	62.8	> 100	47.8	31.6	39												
Oc1cn(-c2ccc(Cl)cc2)nc1-c1nnc(-c2ccccc2)o1	5.13	> 71.3	31.9	1.01	> 100	> 49.8	21.6	22.9	36.1	24.5										
Cc1cc(C)n(C(=C(C(Cl)=C(Cl)Cl)[N+](=O)[O-])n2nc(C)cc2C)n1	3.88	4.18		12.8	7.47	3.76	11.5	6.74	27.8	8.8										
O=c1cnn(C/C=C/CBr)c(=O)[nH]1	26.6	42.2	49.5		48	41.9	26.9	22.9	45.6	37.1										
NS(=O)(=O)c1ccc(N=Nc2nc3[nH]c(=O)[nH]c(=O)c3[nH]2)cc1	> 100	> 100	> 100	> 100	> 100	> 100	> 100	> 100	> 100	> 100										
CC1=CC(C)C/C=C/C2C3OC3(C)C(C)C3C(Cc4c[nH]c5ccccc45)NC(=O)C23C(=O)C=CC(=O)C1O (configuration not stated)	24.4	34.6	5.06	28.5	24.3	2	16.4	8.03	16.9	2.73										
CCCCN(CCCC)CC(O)c1cc(-c2ccc(C(F)(F)F)cc2)nc(-c2ccc(C(F)(F)F)cc2)c1 (configuration not stated)		> 100	> 100	> 100	> 100	> 100	> 100	> 100	> 100	> 100										
O=C(O)c1ccc(Nc2c3ccccc3nc3ccccc23)cc1	> 100	> 100	> 100	> 100	> 100	> 100	> 100	> 100												
CC(C)(C)[Si](OC1CC(n2cnc3c(N)ncnc32)OC1CO)(c1ccccc1)c1ccccc1 (configuration not stated)		36.1	43.9	28	28.5	88.1	> 100	30		31.8										
COc1ccc(C2COc3cc(OC(C)=O)c(OC(C)=O)cc3C2)cc1 (configuration not stated)	48.2	58.7	36.9	63.1	36.8	44.4	46.5	6.3												
c1nc(OCC2CCCCC2)c2[nH]cnc2n1	> 100	> 100	> 100	> 100	> 100	> 100	> 100	> 100	> 100	> 100										
COc1ccc(N2C(=O)/C(=C(\C)c3cc4ccccc4oc3=O)N=C2c2cc([N+](=O)[O-])ccc2Cl)cc1	> 100	> 100	> 100	> 100	> 100	> 100	> 100	39.1		> 100										
O=C(O)CC(CC(=O)O)C(=O)O	> 100	> 100	> 100	> 100	> 100	> 100	> 100	> 100	> 100	> 100										
FC(F)(F)c1ccc(N=C/C=C(/Nc2ccc(C(F)(F)F)cc2)c2ccc(Cl)cc2)cc1	22.2	49.6	84.8	31.3	49.8	32.6	38.3	31.3	37.7	26.2										
CC(=O)N(C)c1ccc(Nc2cc(C)[nH]c3ccc4ncnc4c23)cc1	17.7	23.2	82.7	28	34	16	26.7	21.6	30.4	16.3										
CCOc1cc2c(OCc3ccccc3)cc3c4cc(OC)c(OC)cc4c[n+](C)c3c2cc1OC		2.59	> 29.6	9.1	> 100	0.481	4.95	1.43	6.65	> 75.2										
CN(C)CCCNC(=O)c1cc2[nH]c3c(cnc4ccc([N+](=O)[O-])cc43)c(=O)c2n1C	31.1	> 100	19.3	44.1	31.6	30.1	39.7	32.1	30.7	27.9	17.1	16.9	> 100	5.83	20.5	14	16.5	21.2	17.4	14.5
